Results on two compounds are retold here after patent publication US20250188149A1, “ENHANCING ESTROGEN RECEPTOR ALPHA IN OSTEOARTHRITIS” (University of Pittsburgh - Of the Commonwealth System of …, priority 2022, published 2025).

The conditions of test [1]: patients with knee OA, intra-articular injection, phase II clinical trial, vs placebo; cited from earlier work.
The subject of test [2] is healthy human chondrocytes. Kind of test: DOX-induced DNA damage and senescence in healthy human chondrocytes. Conditions: 100 nM DOX, 3 days, vs vehicle.

Turning to `CC1(C)CCC(c2ccc(Cl)cc2)=C(CN2CCN(c3ccc(C(=O)NS(=O)(=O)c4ccc(N[C@H](CCN5CCOCC5)CSc5ccccc5)c(S(=O)(=O)C(F)(F)F)c4)cc3)CC2)C1` [ABT-263], the “reduction of joint pain and stiffness” value in test [1] is “failed to outperform a placebo”.
For the compound `COc1cccc2c1C(=O)c1c(O)c3c(c(O)c1C2=O)C[C@@](O)(C(=O)CO)C[C@@H]3O[C@H]1C[C@H](N)[C@H](O)[C@H](C)O1` [DOX, doxorubicin], in test [2], the “DNA damage (p21, γH2AX levels, comet assay)” value is “significant DNA damage”; the “IL-6 and IL-8 expression (real-time qPCR)” value is given as “upregulation”; the “NF-κB pathway (NFκB gene, p-p65)” value is “activated”; the “SA-β-Gal staining (senescent phenotype)” value is “increased”. In addition, the “p16INK4A and p21 levels” value in test [2] was “upregulation”. Besides, the ERα level entry in test [2] (western blot and IF) is “significantly reduced”.
